Reference: publication PMC5021059 (Clinical, Cosmetic and Investigational Dermatology, 2016)

Target: T1, 5-α-reductase type I (Homo sapiens, UniProt P18405)
T1 sequence (P18405 1-259): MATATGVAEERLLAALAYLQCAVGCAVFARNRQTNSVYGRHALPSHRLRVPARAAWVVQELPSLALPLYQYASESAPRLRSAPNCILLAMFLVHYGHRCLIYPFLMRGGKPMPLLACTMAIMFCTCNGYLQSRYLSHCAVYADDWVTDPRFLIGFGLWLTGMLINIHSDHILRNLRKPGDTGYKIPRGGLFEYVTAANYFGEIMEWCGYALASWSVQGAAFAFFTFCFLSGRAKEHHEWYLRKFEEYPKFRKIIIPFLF
Type: biochemical

CCCCCCCCCCCCCCC[C@@H](O)[C@@H](N)CO (racemic) [sphinganine]
IC50: 6.5±0.33 and 6.8±0.1 μM

CC(C)(C)NC(=O)[C@H]1CC[C@H]2[C@@H]3CC[C@H]4NC(=O)C=C[C@]4(C)[C@H]3CC[C@]12C [finasteride]
IC50: 420 ± 20 nM
